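Exposure lasted 48 hours, with cells grown in 96-well plates and compounds tested at five concentrations. GI50 is the concentration that inhibits growth by half. At the TGI there is no net growth.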
What was measured:
Test in all cases: NCI anticancer screen, dose series, 48 h
[1] = tested on: U251 CNS
[2] = tested on: TK-10 renal
[3] = tested on: HOP-62 NSCLC
[4] = tested on: NCI-H522 lung
[5] = tested on: NCI-H23 lung
[6] = tested on: SF-295 CNS
[7] = tested on: SK-MEL-28 melanoma
[8] = tested on: MDA-MB-231 breast
[9] = tested on: BT-549 breast
[10] = tested on: HS 578T breast

Row | SMILES | TGI [1] | TGI [2] | TGI [3] | TGI [4] | TGI [5] | TGI [6] | TGI [7] | GI50 [1] | GI50 [2] | GI50 [3] | GI50 [4] | GI50 [8] | TGI [8] | GI50 [5] | GI50 [9] | TGI [9] | GI50 [6] | GI50 [7] | GI50 [10] | TGI [10]
1 | OCC(O)CNc1ccnc2cc(Cl)ccc12 (stereo not given) | > 100 µM | > 100 µM | > 100 µM | > 100 µM | > 100 µM | > 100 µM | > 100 µM |  |  |  |  |  |  |  |  |  |  |  |  | 
2 | CCOC(=O)/C(=C/c1cccc(C#N)c1)N(CC)CC | > 100 µM | > 100 µM | > 100 µM | > 100 µM | > 100 µM | > 100 µM | > 100 µM |  |  |  |  |  |  |  |  |  |  |  |  | 
3 | COc1cc(C2C(C(=O)Nc3cc(F)c(F)cc3F)=C(C)NC(C)=C2C(=O)Nc2cc(F)c(F)cc2F)ccc1O | > 100 µM | 87.9 µM | 97.9 µM | 36.3 µM | 52.8 µM | 55.3 µM | > 100 µM |  |  |  |  |  |  |  |  |  |  |  |  | 
4 | CC(=O)OCCOCNC(=S)N/N=C/c1ccc(Br)s1 | > 100 µM | > 100 µM | > 100 µM | > 100 µM | > 100 µM | > 100 µM | > 100 µM |  |  |  |  |  |  |  |  |  |  |  |  | 
5 | Cc1cccc(N=C2NC(=O)C(CC(=O)Nc3cccc(C)c3C)S2)c1 (stereo not given) | > 100 µM | > 100 µM | > 100 µM |  | > 100 µM | > 100 µM | > 100 µM |  |  |  |  |  |  |  |  |  |  |  |  | 
6 | COC(=O)c1cccc2cccc(C(=O)Nc3ccc(Cl)cc3)c12 | > 100 µM | > 100 µM | > 100 µM | > 91 µM | > 100 µM | > 100 µM | > 100 µM |  |  |  |  |  |  |  |  |  |  |  |  | 
7 | Oc1ccc(Br)cc1C=Nc1ccc(N=Cc2cc(Br)ccc2O)cc1 | > 100 µM | > 100 µM |  |  | > 100 µM | > 100 µM |  |  |  |  |  |  |  |  |  |  |  |  |  | 
8 | S=C1SC2=Nc3ccccc3CN2C2=NCCN12 | > 100 µM | > 100 µM | > 100 µM | > 100 µM | > 100 µM | > 100 µM | > 100 µM | 39.2 µM | > 100 µM | > 100 µM | 27.7 µM | > 100 µM | > 100 µM | > 100 µM | 99.9 µM | > 100 µM | 83.5 µM | > 100 µM |  | 
9 | Clc1ccc(N=CNc2ccc(-c3nc4ccccc4o3)cc2)cc1 | 91.3 µM | 54.2 µM | > 100 µM |  |  | 45.9 µM |  | 23.4 µM | 21 µM | > 100 µM |  | 25.6 µM | 89.4 µM |  | 18.7 µM | 43.6 µM | 19.4 µM |  | 1.89 µM | 28 µM
10 | O=C1C(=O)N(c2cc(Cl)ccc2Cl)C(=O)C(=O)C1c1nc2ccccc2o1 | > 100 µM | > 100 µM | > 100 µM | > 100 µM | > 100 µM | > 100 µM | > 100 µM |  |  |  |  |  |  |  |  |  |  |  |  | 
11 | N#CC(C(=O)CCC(=O)Nc1cccc(C(F)(F)F)c1)c1ccc(Cl)cc1 (stereo not given) | > 100 µM | > 100 µM | > 100 µM | > 100 µM | > 100 µM | > 100 µM |  |  |  |  |  |  |  |  |  |  |  |  |  | 
12 | COC(=O)/C(=C\c1ccc(N(CCC#N)CCC#N)cc1)NC(=O)c1cc([N+](=O)[O-])ccc1Cl | > 100 µM | > 100 µM | > 100 µM | > 100 µM | > 100 µM | > 100 µM | > 100 µM |  |  |  |  |  |  |  |  |  |  |  |  | 
13 | CC1=C(c2cc(C(=O)Nc3ccc(Cl)cc3)nc(=S)[nH]2)Sc2ccccc2N1 | > 100 µM | > 100 µM | > 100 µM | > 100 µM | > 100 µM | > 100 µM | > 100 µM |  |  |  |  |  |  |  |  |  |  |  |  | 
14 | O=C(OCC(OC(=O)c1ccccc1)C(OC(=O)c1ccccc1)C(OC(=O)c1ccccc1)c1cnn(-c2ccccc2)n1)c1ccccc1 (stereo not given) |  | > 100 µM | > 100 µM | > 100 µM | > 100 µM | > 100 µM | > 100 µM |  |  |  |  |  |  |  |  | > 100 µM |  |  |  | > 100 µM
15 | OCCNCCOc1ccc(/C(=C(/Cl)c2ccccc2)c2ccccc2)cc1 | 21.1 µM | 15.9 µM | 31.4 µM | 28.8 µM | 28.4 µM | 28.5 µM | 3.16 µM |  |  |  |  |  |  |  |  |  |  |  |  | 
16 | C=CCn1c2c(sc1=S)C(S)N=CN2 (stereo not given) | > 100 µM | > 100 µM | > 100 µM | > 100 µM | > 100 µM | > 100 µM | > 100 µM |  |  |  |  |  |  |  |  |  |  |  |  | 
17 | CCOC(=O)Cn1c(=O)n(C)c(=O)c2c1ncn2Cc1ccccc1 | > 100 µM | > 100 µM | > 100 µM | > 100 µM | > 100 µM |  | > 100 µM |  |  |  |  |  |  |  |  |  |  |  |  | 
18 | O=C1C(Cl)=C(Nc2ccccc2O)C(=O)N1Cc1ccccc1 | 36.5 µM | 62.1 µM | 32.6 µM | 97.2 µM | 31.7 µM | 52.9 µM | 55.4 µM | 19.2 µM | 28.7 µM | 18.5 µM | 29.1 µM |  |  | 17.9 µM |  |  | 26.2 µM | 25.1 µM | 17.3 µM | 38.1 µM

Row | SMILES | TGI [1] | TGI [2] | TGI [3] | TGI [4] | TGI [5] | TGI [6] | TGI [7] | GI50 [1] | GI50 [2] | GI50 [3] | GI50 [4] | GI50 [8] | TGI [8] | GI50 [5] | GI50 [9] | TGI [9] | GI50 [6] | GI50 [7] | GI50 [10] | TGI [10]
19 | N#Cc1ccc(OC(=O)Nc2ccc(Cl)c(Cl)c2)cc1 | 23.2 µM | 33.9 µM | 60.7 µM |  | 13.7 µM | 7.64 µM | > 100 µM | 3.04 µM | 3.85 µM | 7.5 µM |  | 4.42 µM | 23.3 µM | 2.79 µM | 9.93 µM | 44.2 µM | 2.54 µM | 5.53 µM | 5.02 µM | 28.9 µM
20 | Cc1cccc(C(C)C)c1NC(=O)C(=O)C(C(=O)c1ccccc1F)C1OC(=O)c2ccccc21 (stereo not given) | 37.3 µM | 91.1 µM | 35.8 µM | 33.6 µM | 40.6 µM |  | 53.7 µM |  |  |  |  |  |  |  |  |  |  |  |  | 
21 | Cc1cc(C(C)(C)C)cc(Cc2cc(C(C)(C)C)cc(Cc3cc(C(C)(C)C)cc(C)c3O)c2O)c1O | 14.9 µM | 30 µM | 28.9 µM | 13.2 µM | 21.7 µM | 29.4 µM |  |  |  |  |  |  |  |  |  |  |  |  |  | 
22 | c1ccc(CSc2nc3ccccc3nc2-c2cccs2)cc1 | > 100 µM | > 100 µM | > 100 µM | > 100 µM | > 100 µM | > 100 µM | > 100 µM |  |  |  |  |  |  |  |  |  |  |  |  | 
23 | COCOc1ccc(C2(O)Oc3cc(OCOC)ccc3C2C)c(O)c1 (stereo not given) | 28.2 µM | 32.5 µM | 32 µM | 32.8 µM | 23.9 µM | 29 µM | 31 µM |  |  |  |  |  | 25.3 µM |  |  | 28.2 µM |  |  |  | 
24 | COC1=C(Br)C(=O)c2nc(C)ccc2C1=O | 28.5 µM | 32.4 µM | > 60.3 µM | 15.8 µM | 27 µM | 34.7 µM | 33.1 µM |  |  |  |  |  |  |  |  |  |  |  |  | 
25 | O=C(O)CN(c1ccccc1)S(=O)(=O)c1ccc([N+](=O)[O-])cc1 | > 100 µM | > 100 µM |  | > 100 µM | > 100 µM | > 100 µM |  |  |  |  |  |  |  |  |  |  |  |  |  | 
26 | N.N.NCCCCCCCCCN.O=C([O-])CC(=O)[O-].O=C([O-])CC(=O)[O-].[Pt+4].[Pt+4] | > 100 µM | > 100 µM | > 100 µM | > 100 µM | > 100 µM | > 100 µM | > 100 µM | 95.2 µM | > 100 µM | > 100 µM | 67.5 µM |  |  | > 100 µM |  |  | > 100 µM | 87.5 µM |  | 
27 | CN(C)CCSc1nccc(-c2cc3ccccc3s2)n1 | 57.1 µM |  | 52.7 µM | 36.7 µM |  | 31 µM | 40.9 µM |  |  |  |  |  |  |  |  |  |  |  |  | 
28 | C[C@]12CC[C@@H]3c4ccc(O)c([N+](=O)[O-])c4CC[C@H]3[C@@H]1CC[C@@H]2NS(=O)(=O)c1cccc(Br)c1 | 4.28 µM | 8.98 µM | 3.54 µM |  | 5.06 µM | 3.13 µM | 3.67 µM | 1.9 µM | 2.92 µM | 1.9 µM |  | 1.85 µM | 4.14 µM | 2 µM | 1.91 µM | 3.93 µM | 1.68 µM | 1.85 µM | 2.23 µM | 6 µM
29 | CCCCc1c2c(nc3c1CCC/C3=C\c1ccccc1)/C(=C/c1ccccc1)CCC2 | > 100 µM | > 100 µM | > 100 µM | > 100 µM | > 100 µM | > 100 µM | > 100 µM |  |  |  |  |  |  |  |  |  |  |  |  | 
30 | CCOc1ccccc1NC(=O)C(=O)Cc1nc2ccccc2s1 | > 100 µM | > 100 µM | > 100 µM | > 100 µM | > 100 µM | > 100 µM | > 100 µM |  |  |  |  |  |  |  |  |  |  |  |  | 
31 | CC1CN1c1c(C(=O)/C=C/c2ccc(Cl)cc2)c(-c2ccccc2)nn(C)c1=O (stereo not given) | 5.36 µM | 8.94 µM | 7.66 µM | 5.99 µM | 6.97 µM | > 10 µM | > 10 µM |  |  |  |  |  |  |  |  |  |  |  |  | 
32 | Cc1cccc(C)c1NC(=O)C(=O)CC(=O)c1cccc([N+](=O)[O-])c1 | > 100 µM | > 100 µM | > 100 µM | > 100 µM | > 100 µM | > 100 µM | > 100 µM |  |  |  |  |  |  |  |  |  |  |  |  | 
33 | CC(=O)OC1C2CCC1C1C2C2(Cl)C(Cl)=C(Cl)C1(Cl)C2(Cl)Cl (stereo not given) | 26.2 µM | 28.8 µM | 29 µM | 25 µM | 25.8 µM | 23.7 µM | 34.3 µM |  |  |  |  |  |  |  |  |  |  |  |  | 
34 | [F][Sn]([F])([c]1ccccc1)[c]1ccccc1 | 3.05 µM | 3.44 µM | 4.85 µM |  | 3.7 µM | 3.85 µM | 3.75 µM | 1.63 µM | 1.89 µM | 2.32 µM |  |  |  | 1.85 µM |  |  | 1.99 µM | 1.96 µM |  | 
35 | C/C(CCn1[nH]c(=O)ccc1=O)=N\OCCCc1ccccc1 |  | > 100 µM | > 100 µM |  | > 100 µM | > 100 µM | > 100 µM |  |  |  |  |  |  |  |  |  |  |  |  | 
36 | CC(C)(C)OC(=O)N1N=NC2C1C1CC(OCc3ccccc3)(OCc3ccccc3)C2O1 (stereo not given) | > 100 µM |  | > 100 µM |  | 49.2 µM | > 100 µM | 91.3 µM |  |  |  |  |  |  |  |  |  |  |  |  | 
